Laboratory results: US11247971B2, “Small molecule inhibitors of lactate dehydrogenase and methods of use thereof” (THE UNITED STATES OF AMERICA, AS REPRESENTED BY THE …, priority 2014, dated 2022)

Assays:
[1] = pharmacokinetics after oral administration in mice; format: in vivo; conditions: male CD1 mice, oral 10 mg/kg
Human LDHA = Human LDHA (Homo sapiens (Human), UniProt P00338); experiment: human LDHA primary biochemical assay; conditions: read-out: Inhibitory activity IC50, assay of Example 1, activity level classes
Description: This example describes a human LDHA primary biochemical assay employed in the characterization of a compound of formula (I) in an embodiment of the invention.
Test compounds were placed in a Greiner Bio-One (Monroe, N.C.) 1536-well black solid bottom assay plate. 200 millimolar (mM) Tris HCl, pH 7.4, 100 micromolar (μM) EDTA and 0.01% TWEEN-20™, final concentration, was used as the assay buffer. The LDHA reagent was 2 nanomolar (nM) Human LDHA (Meridian Life Science, Inc., Memphis, Tenn.), final concentration, in assay buffer. The substrate reagent was 0.06 mM NADH and 0.2 mM sodium pyruvate, final concentration, in assay buffer. […] The inhibition of LDHA activity was measured by fluorescence emission.

MiaPaCa2 cells = experiment: cell-based HT Lactate assay, colorimetric/fluorometric detection (inhibition of lactate production); conditions: class symbols
Description: Cell-based HT Lactate assay is a miniaturized Biovision Lactate Colorimetric/Fluorometric Assay Kit (Cat #K607-100). The assay is roughly a 3.5 hour assay run in a 1536 plate format. Cell number optimization should be run for each cell line to achieve an optimal number in which lactate production equals roughly 90% of the standard curve range. Cell number per well optimization has been performed with the following cell lines: MiaPaCa2—500 cells/well, SNU398—500 cells/well, and P493—500 cells/well.
The lactate activity in Table 8 is represented by 0 to 3 pluses as follows: […]; ++1-10 μM; +10-57 μM; and −>57 μM.

Row | F (fraction of the dose that enters systemic circulation) [1] | AUClast ([1]; plasma, LC/MS/MS) | Cmax ([1]; plasma, LC/MS/MS) | Molecule | IC50 (Human LDHA) | IC50 (MiaPaCa2 cells)
1 | 69% | 2409 ng·h/mL | 851 ng/mL | CCOC(=O)c1csc(-n2nc(-c3cccc(-c4ccccc4)c3)c(Cc3ccc(S(N)(=O)=O)cc3)c2C(F)(F)F)n1 [Compound 141, ethyl 2-(3-([1,1′-bipheny]-3-yl)-4-(4-sulfamoylbenzyl)-5-(trifluoromethyl)-1H-pyrazol-1-yl)thiazole-4-carboxylate] |  | 
2 |  |  |  | NS(=O)(=O)c1ccc(Cc2c(-c3ccc(F)c(OC4CC4)c3)nn(-c3nc(C(=O)O)cs3)c2CC2CC2)cc1F [Compound 471, 2-(3-(3-cyclopropoxy-4-fluorophenyl)-5-(cyclopropylmethyl)-4-(3-fluoro-4-sulfamoylbenzyl)-1H-pyrazol-1-yl)thiazole-4-carboxylic acid] | < 100 nM | 
3 | 34% |  |  | NS(=O)(=O)c1ccc(Cc2c(-c3cccc(-c4ccccc4)c3)nn(-c3nc(C(=O)O)cs3)c2C(F)(F)F)cc1 [Compound 42, 2-(3-([1,1′-biphenyl]-3-yl)-4-(4-sulfamoylbenzyl)-5-(trifluoromethyl)-1H-pyrazol-1-yl)thiazole-4-carboxylic acid] |  | 
4 |  |  |  | 2-(3-(3′-amino-[1,1′-biphenyl]-3-yl)-4-(4-sulfamoylbenzyl)-1H-pyrazol-1-yl)thiazole-4-carboxylic acid [Compound 523] | 100 to 1000 nM | 1000 to 10000 nM
